Assay [1] has as its target Mu-type opioid receptor (Rattus norvegicus, UniProt P33535). Nature of the assay: Binding affinity against opioid receptor mu using [3H]-DAMGO as radioligand.
The nature of assay [2]: Binding affinity against PCP receptor using [3H]TCP as radioligand.
Assay [3] in a line: Binding affinity against sigma opioid receptor using [3H](+)-3-PPP as radioligand.
A short description of assay [4]: Ratio of binding affinities of pcp receptor(ki(nM)) to sigma opioid receptor(ki(nM)).
A short description of assay [5]: Binding affinity against sigma opioid receptor using [3H]pentazocine as radioligand.

Bounds are passed on as bounds.

Sequence of Mu-type opioid receptor (P33535 whole entry): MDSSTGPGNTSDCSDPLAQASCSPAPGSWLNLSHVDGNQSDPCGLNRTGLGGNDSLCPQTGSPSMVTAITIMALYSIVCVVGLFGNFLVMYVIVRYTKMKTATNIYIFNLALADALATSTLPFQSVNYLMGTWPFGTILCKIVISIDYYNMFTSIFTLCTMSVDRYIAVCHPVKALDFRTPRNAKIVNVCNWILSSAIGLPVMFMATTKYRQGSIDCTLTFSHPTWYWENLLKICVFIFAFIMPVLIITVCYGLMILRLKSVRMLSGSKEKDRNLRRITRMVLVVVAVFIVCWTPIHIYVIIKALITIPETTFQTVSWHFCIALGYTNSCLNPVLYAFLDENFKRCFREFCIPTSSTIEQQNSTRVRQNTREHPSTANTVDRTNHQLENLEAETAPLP

Turning to `CC#CCN1CC[C@@]2(C)c3cc(O)ccc3C[C@H]1[C@H]2C`, the Ki in assay [1] was found to be 1000 nM; in assay [2], 1230 nM; in assay [3] it was 93.7 nM.
In assay [2], `CC(C)=CCN1CC[C@]2(C)c3cc(O)ccc3C[C@H]1[C@H]2C` [(+)-PENTAZOCINE] displayed a Ki of 4040 nM. For the same compound, the Ratio in assay [4] is 1300.
Take `C/C=C/CN1CC[C@@]2(C)c3cc(O)ccc3C[C@H]1[C@H]2C`: the results for the Ki in assay [1], in assay [2] and in assay [3] were 5620 nM, 179 nM and 52.5 nM, respectively.
On to `C=C[C@@H](C)N1CC[C@]2(C)c3cc(O)ccc3C[C@@H]1[C@@H]2C`, for which the Ki worked out at 5.9 nM in assay [1] and 1900 nM in assay [2].
Consider `C[C@H]1[C@H]2Cc3ccc(O)cc3[C@@]1(C)CCN2Cc1ccccc1`, for which the values for the Ki in assay [1], in assay [5] and in assay [2] were 97 nM, 36.5 nM and 6500 nM, respectively.
On to `C=CCN1CC[C@@]2(C)c3cc(O)ccc3C[C@H]1[C@H]2C`, for which the Ki in assay [1] is over 10000 nM; in assay [2], 225 nM.
For `C/C=C\CN1CC[C@]2(C)c3cc(O)ccc3C[C@@H]1[C@@H]2C`, the Ki in assay [1] stood at 11 nM; in assay [2] it was 1120 nM; in assay [3], 460 nM.
For `C[C@@H]1[C@@H]2Cc3ccc(O)cc3[C@@]1(C)CN2CC1CC1`, the Ki in assay [1] is 1240 nM; in assay [5] it was 17.2 nM; in assay [2], 153 nM. Besides, the Ratio in assay [4] turned out to be 8.9.
As for `C/C=C/CN1CC[C@]2(C)c3cc(O)ccc3C[C@@H]1[C@@H]2C`, the results for the Ki in assay [1] and in assay [2] were 9 nM and 347 nM, respectively.
Consider `CC(C)CCN1CC[C@@]2(C)c3cc(O)ccc3C[C@H]1[C@H]2C`, for which the results for the Ki in assay [1], in assay [5] and in assay [2] were 3500 nM, 2.25 nM and over 10000 nM, respectively. Besides, the Ratio in assay [4] was over 4440.
For `C[C@@H]1[C@@H]2Cc3ccc(O)cc3[C@]1(C)CCN2CCCCCc1ccccc1` the same measures were 260 nM, 2.64 nM, over 10000 nM and over 3790.
Take `C=C[C@H](C)N1CC[C@]2(C)c3cc(O)ccc3C[C@@H]1[C@@H]2C`: the Ki in assay [1] was determined as 3 nM; in assay [2], 2200 nM.
Consider `C[C@@H]1[C@@H]2Cc3ccc(O)cc3[C@]1(C)CCN2CCCCc1ccccc1`, for which the Ki in assay [1] was 270 nM; in assay [5], 3.23 nM; in assay [2], over 10000 nM. In addition, in assay [4], the Ratio was determined as 3100.
As to `C[C@@H]1[C@@H]2Cc3ccc(O)cc3[C@]1(C)CCN2C/C=C/Cl`, the Ki in assay [1] was 1980 nM; in assay [5], 10.5 nM; in assay [2], 250 nM. Also, the Ratio in assay [4] worked out at 24.
The like results for `C[C@H]1[C@H]2Cc3ccc(O)cc3[C@]1(C)CCN2CCc1ccccc1` were, in that order, 0.2 nM, 61.7 nM, 1880 nM and 30.5.
Take `C=C[C@H](C)N1CC[C@@]2(C)c3cc(O)ccc3C[C@H]1[C@H]2C`: the Ki in assay [1] was 2270 nM; in assay [2], 90 nM; in assay [3], 159 nM.
As to `C[C@H]1[C@H]2Cc3ccc(O)cc3[C@@]1(C)CCN2CCCCc1ccccc1`, the Ki was 4 nM in assay [1], 85.2 nM in assay [5] and 5960 nM in assay [2]. The Ratio in assay [4] is 70.
For `C[C@H]1[C@H]2Cc3ccc(O)cc3[C@]1(C)CCN2CC1CC1` [CYCLAZOCINE], the Ki in assay [1] came to 0.18 nM; in assay [2] it was 107 nM.
Turning to `C[C@@H]1[C@@H]2Cc3ccc(O)cc3[C@]1(C)CCN2Cc1ccccc1`, the Ki in assay [1] is 1610 nM; in assay [5], 0.67 nM; in assay [2], over 10000 nM.
In the case of `C[C@H]1[C@H]2Cc3ccc(O)cc3[C@@]1(C)CCN2CCCCCc1ccccc1`, the values for the Ki in assay [1], in assay [5] and in assay [2] were 68 nM, 38.5 nM and over 10000 nM, respectively. Besides, in assay [4], the Ratio worked out at 260.
`C=C[C@@H](C)N1CC[C@@]2(C)c3cc(O)ccc3C[C@H]1[C@H]2C`: the Ki came to 690 nM in assay [1] and 200 nM in assay [2].
As to `C[C@H]1[C@H]2Cc3ccc(O)cc3[C@@]1(C)CCN2C/C=C/Cl`, the Ki in assay [1] was 1.5 nM; in assay [5], 403 nM; in assay [2], 470 nM. The Ratio in assay [4] stood at 1.2.
For `C[C@@H]1[C@@H]2Cc3ccc(O)cc3[C@]1(C)CCN2`, the Ki in assay [1] was found to be 470 nM; in assay [2] it was 30 nM.
`C[C@@H]1[C@@H]2Cc3ccc(O)cc3[C@]1(C)CCN2CCCc1ccccc1`: the inhibitory constant (Ki) in assay [1] amounted to 343 nM; in assay [5] it was 1.15 nM; in assay [2], 9700 nM. In assay [4], the Ratio was determined as 8440.
As for `C[C@@H]1[C@@H]2Cc3ccc(O)cc3[C@]1(C)CCN2C`, the Ki in assay [1] amounted to 4970 nM; in assay [2], 41 nM.
The like results for `C[C@H]1[C@H]2Cc3ccc(O)cc3[C@@]1(C)CCN2C` were, in that order, 11 nM and 1190 nM.
`C[C@@H]1[C@@H]2Cc3ccc(O)cc3[C@@]1(C)CCN2CCc1ccccc1`: the results for the Ki in assay [1], in assay [5] and in assay [2] were 55 nM, 3.9 nM and over 10000 nM, respectively. For the same compound, in assay [4], the Ratio was over 2560.
For `CC(C)=CCN1CC[C@@]2(C)c3cc(O)ccc3C[C@@H]1[C@@H]2C`, the Ki in assay [1] turned out to be 13 nM; in assay [2] it was 842 nM. The Ratio in assay [4] was determined as 10.1.
On to `C[C@H]1[C@H]2Cc3ccc(O)cc3[C@@]1(C)CCN2`, for which the values for the Ki in assay [1], in assay [5] and in assay [2] were 23 nM, 5580 nM and 197 nM, respectively.
Consider `CC(C)CCN1CC[C@]2(C)c3cc(O)ccc3C[C@@H]1[C@@H]2C`, for which the Ki was determined as 4.9 nM in assay [1], 8.74 nM in assay [5] and 2740 nM in assay [2]. For the same compound, the Ratio in assay [4] was determined as 313.
Take `CC#CCN1CC[C@]2(C)c3cc(O)ccc3C[C@@H]1[C@@H]2C`: the Ki in assay [1] stood at 5.1 nM; in assay [2], 360 nM.
As for `C[C@H]1[C@H]2Cc3ccc(O)cc3[C@@]1(C)CCN2CCCc1ccccc1`, the Ki is 20 nM in assay [1], 38.6 nM in assay [5] and 3600 nM in assay [2]. In addition, the Ratio in assay [4] turned out to be 93.3.
Regarding `C=CCN1CC[C@]2(C)c3cc(O)ccc3C[C@@H]1[C@@H]2C`, the figures for the Ki in assay [1], in assay [5] and in assay [2] were 3.6 nM, over 3000 nM and 504 nM, respectively.
For the compound `C/C=C\CN1CC[C@@]2(C)c3cc(O)ccc3C[C@H]1[C@H]2C`, the Ki in assay [1] turned out to be 1690 nM; in assay [2], 381 nM.

By Ki is commonly meant the dissociation constant of the complex between target and ligand, obtained from inhibition or displacement.

For the origin of these results see ChEMBL document CHEMBL1125499, “Enantiomeric N-substituted N-normetazocines: a comparative study of affinities at sigma, PCP, and mu opioid receptors” (J Med Chem, 1992).
